PMC7822065, “Discovery of indole-3-butyric acid derivatives as potent histone deacetylase inhibitors” (Journal of Enzyme Inhibition and Medicinal Chemistry, 2021)

Experiments:
[1] = tested on: HepG2 cells; assay: MTT antiproliferative assay, HepG2; conditions: Homo sapiens, HepG2, 48 h, read-out: HepG2 IC50
Description: (§1) The stock solutions of tested compounds were diluted with culture medium. […] Then, the cells were treated with compound sample at various concentrations for 48 h. Afterward, 20 MTT working solution (5 mg/ml) was added to each well and incubated for another 4 h. After incubation, the medium formed from MTT was extracted by adding DMSO (200 µl). The optical density (OD) at 490 nm and 630 nm were measured by Universal Microplate Spectrophotometer. […] The IC50 values were calculated with Origin 7.5 software (Originlab Corporation, Northampton, MA), and standard deviations of the IC50 values were obtained through at least 3 independent experiments.

[2] = tested on: U266 cells; assay: MTT antiproliferative assay, U266; conditions: Homo sapiens, U-266, 48 h, read-out: U266 IC50
Description: as §1
To evaluate the antiproliferative activity of hydroxamic acid containing molecules, MTT assays were performed using U937, U266, and HepG2 cell lines.

[3] = tested on: HDACs (HeLa nucleus extract containing a mixture of HDAC isoforms); assay: HDAC inhibitory assay with HeLa nucleus extract; conditions: at the concentration of 1 µM
[4] = tested on: U937 cells; assay: MTT antiproliferative assay, U937; conditions: Homo sapiens, U-937, 48 h, read-out: U937 IC50
Description: as §1

SMILES	IC50 [1]	IC50 [2]	IC50 [4]	HDACs, percentage inhibition rate (PIR) [3]
O=C(CCCc1c[nH]c2ccccc12)Nc1ccc(C(=O)NO)cc1 [Compound I1, 4-(4-(1H-indol-3-yl)butanamido)-N-hydroxybenzamide]	8980 ± 160 nM	840 ± 90 nM	1020 ± 130 nM	53.81 ± 1.60%
O=C(CCCc1cn(Cc2ccccc2C(F)(F)F)c2ccccc12)Nc1ccc(C(=O)NO)cc1 [Compound I5, 4-(4-(1-(2-Trifluoromethyl-benzyl)-1H-indol-3-yl)butanamido)-N-hydroxybenzamide]	6170 ± 210 nM	880 ± 70 nM	4420 ± 180 nM	19.30 ± 1.60%
O=C(CCCc1cn(Cc2ccc(F)c(F)c2)c2ccccc12)Nc1ccc(C(=O)NO)cc1 [Compound I6, 4-(4-(1-(3,4-Difluoro-benzyl)-1H-indol-3-yl)butanamido)-N-hydroxybenzamide]	7720 ± 340 nM	820 ± 60 nM	1250 ± 210 nM	16.14 ± 1.07%
O=C(CCCc1cn(Cc2cccc(F)c2)c2ccccc12)Nc1ccc(C(=O)NO)cc1 [Compound I7, 4-(4-(1-(3-Fluoro-benzyl)-1H-indol-3-yl)butanamido)-N-hydroxybenzamide]	4870 ± 120 nM	840 ± 60 nM	950 ± 10 nM	46.17 ± 2.94%
O=C(CCCc1cn(Cc2cccc(Br)c2)c2ccccc12)Nc1ccc(C(=O)NO)cc1 [Compound I8, 4-(4-(1-(3-Bromo-benzyl)-1H-indol-3-yl)butanamido)-N-hydroxybenzamide]	6450 ± 280 nM	710 ± 60 nM	1940 ± 170 nM	15.87 ± 3.27%
O=C(CCCc1cn(Cc2cccc(Cl)c2)c2ccccc12)Nc1ccc(C(=O)NO)cc1 [Compound I9, 4-(4-(1-(3-Chloro-benzyl)-1H-indol-3-yl)butanamido)-N-hydroxybenzamide]	5670 ± 60 nM	650 ± 40 nM	1000 ± 150 nM	56.68 ± 2.42%
O=C(CCCc1cn(Cc2cc(C(F)(F)F)cc(C(F)(F)F)c2)c2ccccc12)Nc1ccc(C(=O)NO)cc1 [Compound I11, 4-(4-(1-(3,5-Bis-trifluoromethyl-benzyl)-1H-indol-3-yl)butanamido)-N-hydroxybenzamide]	4760 ± 610 nM	740 ± 50 nM	4580 ± 230 nM	52.24 ± 1.10%
CCCCn1cc(CCCC(=O)Nc2ccc(C(=O)NO)cc2)c2ccccc21 [Compound I12, 4-(4-(1-Butyl-1H-indol-3-yl)butanamido)-N-hydroxybenzamide]	5760 ± 650 nM	120 ± 20 nM	1010 ± 30 nM	62.70 ± 1.63%

The next compounds have a lower IC50 [1] than those just listed; values first:

IC50 [1]	IC50 [2]	IC50 [4]	SMILES	HDACs, percentage inhibition rate (PIR) [3]
3630 ± 260 nM	480 ± 90 nM	950 ± 40 nM	O=C(CCCc1cn(Cc2ccccc2)c2ccccc12)Nc1ccc(C(=O)NO)cc1 [Compound I2, 4-(4-(1-benzyl-1H-indol-3-yl)butanamido)-N-hydroxybenzamide]	78.94 ± 3.41%
1920 ± 50 nM	240 ± 30 nM	940 ± 40 nM	CCn1cc(CCCC(=O)Nc2ccc(C(=O)NO)cc2)c2ccccc21 [Compound I3, 4-(4-(1-Ethyl-1H-indol-3-yl)butanamido)-N-hydroxybenzamide]	78.94 ± 2.34%
4450 ± 250 nM	960 ± 80 nM	970 ± 40 nM	O=C(CCCc1cn(Cc2ccc(C(F)(F)F)cc2)c2ccccc12)Nc1ccc(C(=O)NO)cc1 [Compound I4, 4-(4-(1-(4-Trifluoromethyl-benzyl)-1H-indol-3-yl)butanamido)-N-hydroxybenzamide]	68.50 ± 1.22%
3390 ± 250 nM	160 ± 70 nM	630 ± 70 nM	O=C(CCCc1cn(Cc2c(F)cccc2F)c2ccccc12)Nc1ccc(C(=O)NO)cc1 [Compound I10, 4-(4-(1-(2,6-Difluoro-benzyl)-1H-indol-3-yl)butanamido)-N-hydroxybenzamide]	79.10 ± 4.65%
